Values joined by “and” are separate entries in the source; they are usually repeats but may differ in a detail not shown here. Identical values can stand only once. One block for each compound: values may come before it.
How the values were obtained:
PSMA = target: T1, PSMA (Homo sapiens, UniProt Q04609); assay: Competitive binding assay (IC50) on LNCaP cells with ([^125I]I-BA)KuE as radioligand; details: LNCaP cells 1.5*10^5 cells/well, 1 h, 4° C., HBSS + 1% BSA, radioligand ([^125I]I-BA)KuE; mean ± SD (n = 3)
T1 construct: host or cells: LNCaP cells
Procedure: One day (24 h±2 h) prior to all experiments with LNCaP cells, the cultivated cells were harvested using a mixture of trypsin/ethylendiaminetetraacetate (0.05%/0.02%) and PBS and centrifuged. After centrifugation, the supernatant was disposed and the cell pellet resuspended in culture medium. Afterwards, cells were counted with a hemocytometer (Neubauer) and seeded in 24-well plates.
After removal of the culture medium, the cells were treated once with HBSS (500 μL, Hank's balanced salt solution, Biochrom, Berlin, Germany, with addition of 1% BSA) and left 15 min on ice for equilibration in HBSS (200 μL, 1% BSA). […] All experiments were performed at least three times for each concentration. After 60 min incubation on ice, the experiment was terminated by removal of the medium and consecutive rinsing with HBSS (200 μL). The media of both steps were combined in one fraction and represent the amount of free radioligand. Afterwards, the cells were lysed with NaOH (250 μL, 1.0 m) and united with the HBSS (200 μL) of the following washing step. Quantification of bound and free radioligand was accomplished in a γ-counter.

LNCaP cells [1] = assay: Internalization into LNCaP cells, relative cellular uptake to ([^125I]I-BA)KuE; format: cell-based; details: c = 1.0 nM ^177Lu-labeled inhibitor, 37° C., 60 min, corrected for non-specific binding (10 μM 2-PMPA), mean ± SD (n = 3)
Procedure: PSMA-positive LNCAP cells (300265; Cell Lines Service GmbH) were cultivated in Dulbecco modified Eagle medium/Nutrition Mixture F-12 (1/1) (DMEM-F12, Biochrom) supplemented with fetal calf serum (FCS) (10%, Biochrom) and kept at 37° C. in a humidified CO2 atmosphere (5%). One day (24 h±2 h) prior to all experiments with LNCaP cells, the cultivated cells were harvested using a mixture of trypsin/ethylendiaminetetraacetate (0.05%/0.02%) and PBS and centrifuged. After centrifugation, the supernatant was disposed and the cell pellet resuspended in culture medium. Afterwards, cells were counted with a hemocytometer (Neubauer) and seeded in 24-well plates.
Subsequent to the removal of the culture medium, the cells were washed once with DMEM-F12-solution (500 μL, 5% BSA) and left to equilibrate for at least 15 min at 37° C. in DMEM-F12-solution (200 μL, 5% BSA). Afterwards, each well was treated with either DMEM-F12-solution (25 μL, 5% BSA) or 2-PMPA-solution (25 μL, 100 μm) for blockade. […] The experiment was terminated by placing the 24-well plate on ice for 3 min and the consecutive removal of the medium. Each well was rinsed with HBSS (250 μL) and the fractions from these first two steps combined, representing the amount of free radioligand. Removal of surface bound activity was accomplished by incubation of the cells with ice-cold 2-PMPA-solution (250 μL, 10 μm in PBS) for 5 min and subsequent rinsing with ice-cold PBS (250 μL). The internalized activity was determined through incubation of the cells in NaOH (250 μL, 1.0 m) and the combination with the fraction of the subsequent washing step with again NaOH (250 μL, 1.0 m). Each experiment (control and blockade) was performed in triplicate for each time point. Free, surface bound and internalized activity was quantified in a γ-counter.

HSA = target: T2, HSA (Homo sapiens, UniProt P02768); assay: HSA binding on Chiralpak HSA column; format: in vitro ADME
T2 construct: purchased Daicel Chemical Industries / Chiral Technologies Europe (Illkirch, France)
Procedure: HSA binding experiments were performed as previously described. […] For each run, 10 μL of the solution containing the inhibitor was injected into the RP-HPLC system and the retention time measured. […] Non-linear regression was established with OriginPro 2016G.

[2] = Lipophilicity, logP in n-octanol/PBS of radiolabeled PSMA inhibitors; format: physicochemical; details: pH 7.4
Procedure: The radiolabeled PSMA inhibitor (0.5 to 1.0 MBq) dissolved in PBS (500 μL, pH=7.4), was added to n-octanol (500 μL) in a reaction vial (1.5 mL), which was rigorously vortexed for 3 min (n=6). For quantitative phase separation, the mixture was centrifuged at 6,000 g for 5 min (Biofuge 15, Heraus Sepatech, Osterode, Germany). The activity from samples of each phase (100 μL) were measured in a γ-counter to obtain the log P(o/w) value.

LNCaP cells [3] = assay: Externalization kinetics / cell retention in LNCaP cells; format: cell-based
Procedure: FIG. 2: Externalization kinetics of selected ^177Lu-labeled PSMA inhibitors from LNCaP cells. […] Then, the supernatant was removed and once washed with DMEM-solution (5% BSA, 37° C.). Afterwards, either A) only DMEM-solution (5% BSA) or B) blockade DMEM-solution (5% BSA, 10 μm 2-PMPA) were added for replacement. The total cellular internalized activity at t=0 min was corrected for non-specific binding (10 μm 2-PMPA) and normalized to 100%. All data are expressed as mean±SD (n=3).
Externalization kinetics of the radiolabeled PSMA inhibitors were determined using LNCaP cells, which were similarly prepared as described for the internalization assay. After an initial cell-washing step with DMEM-F12-solution (5% BSA), the cells were left to recondition for at least 15 min at 37° C. Subsequently, the LNCaP cells were incubated with the respective radiolabeled peptide (25 μL, 10.0 nm) at 37° C. for 60 min in a total volume of 250 μL in each well. After 60 min, the supernatant with the unbound free fraction was removed and measured in a γ-counter for the calculation of total added radioactivity. An acid wash step was avoided to warrant enzyme integrity during the following externalization and recycling study. To determine the recycling rate, fresh DMEM-F12-solution (250 μL, 5% BSA) was given to the cells to allow re-internalization. In contrast, re-internalization was inhibited by addition of DMEM-F12-solution containing 2-PMPA (225 μL DMEM-F12 (5% BSA) and 25 μL of 100 μm 2-PMPA-solution (PBS)). The cells were then incubated for 0, 20, 40 and 60 min at 37° C. Consequently, the supernatant was removed and the cells were washed with ice-cold HBSS (250 μL). The combination of the supernatant and the volume of the concomitant washing step with HBSS (200 μL) account for externalized radioligand at the investigated time point. Further, the cells were then washed with ice-cold 2-PMPA HBSS solution (250 μL, 10 μm) twice, combined and thus represented the fraction of membrane-bound radioligand. The determination of the internalized fraction was achieved by lysis as described for the internalization assay with NaOH (250 μL, 1.0 m). The activities of free, externalized, membrane-bound and internalized radioligand were quantified in a γ-counter.

LNCaP-tumor xenograft = assay: Biodistribution in LNCaP-tumor xenograft bearing CB-17 SCID mice; format: in vivo; details: male, CB-17 SCID, mouse, in vivo
Procedure: (§1) All animal experiments were carried out in accordance with the general animal welfare regulations in Germany (Deutsches Tierschutzgesetz, approval #55.2-1-54-2532-71-13). For the tumor model, LNCaP cells (approx. 10^7 cells) were suspended in serum-free DMEM-F12 medium and Matrigel (1/1; v/v) (BD Biosciences, Germany) and inoculated onto the right shoulder of male, 6 to 8 weeks old CB-17 SCID mice (Charles River Laboratories, Sulzfeld, Germany). Animals were used after the tumor size reached 4 to 8 mm in diameter for experiments.

LNCaP-tumor = tested on: LNCaP-tumor; parameters: species or system CB-17 SCID mice; details: male, CB-17 SCID, mouse, in vivo, 85 min
Procedure: as §1
Imaging experiments were conducted using a Siemens Inveon small animal PET and the data analyzed by the associated Inveon Research Workplace software. Mice were anaesthetized with isoflurane and approx. 4.0 to 17 MBq of the ^68Ga-labeled compounds were injected via tail vein (approx. 150 to 300 μL). Dynamic imaging was carried out after on-bed injection for 90 min. The static blockade image was obtained after 1 h p.i. with 15 min acquisition time. PSMA-blockade was achieved by coinjection of 8 mg/kg of 2-PMPA-solution (PBS). All images were reconstructed using an OSEM3D algorithm without […] and attenuation correction.

[4] = after logarithmic plotting and calibration (n = 1)

T2 sequence (P02768 25-609): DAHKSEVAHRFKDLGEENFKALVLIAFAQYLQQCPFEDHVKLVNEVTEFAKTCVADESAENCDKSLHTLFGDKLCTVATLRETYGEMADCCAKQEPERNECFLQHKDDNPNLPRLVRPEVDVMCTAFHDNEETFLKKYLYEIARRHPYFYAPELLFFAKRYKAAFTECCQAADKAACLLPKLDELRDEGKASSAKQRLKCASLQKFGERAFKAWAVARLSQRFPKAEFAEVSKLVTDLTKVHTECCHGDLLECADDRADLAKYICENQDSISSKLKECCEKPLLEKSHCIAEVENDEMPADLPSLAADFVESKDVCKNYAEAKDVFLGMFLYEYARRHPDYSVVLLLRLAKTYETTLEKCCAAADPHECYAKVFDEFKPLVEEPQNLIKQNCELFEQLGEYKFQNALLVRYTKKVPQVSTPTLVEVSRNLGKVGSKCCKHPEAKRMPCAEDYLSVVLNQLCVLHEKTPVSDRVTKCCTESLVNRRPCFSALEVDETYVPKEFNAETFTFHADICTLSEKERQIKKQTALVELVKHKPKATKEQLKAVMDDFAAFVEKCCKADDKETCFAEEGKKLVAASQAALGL
T1 sequence (Q04609 whole entry): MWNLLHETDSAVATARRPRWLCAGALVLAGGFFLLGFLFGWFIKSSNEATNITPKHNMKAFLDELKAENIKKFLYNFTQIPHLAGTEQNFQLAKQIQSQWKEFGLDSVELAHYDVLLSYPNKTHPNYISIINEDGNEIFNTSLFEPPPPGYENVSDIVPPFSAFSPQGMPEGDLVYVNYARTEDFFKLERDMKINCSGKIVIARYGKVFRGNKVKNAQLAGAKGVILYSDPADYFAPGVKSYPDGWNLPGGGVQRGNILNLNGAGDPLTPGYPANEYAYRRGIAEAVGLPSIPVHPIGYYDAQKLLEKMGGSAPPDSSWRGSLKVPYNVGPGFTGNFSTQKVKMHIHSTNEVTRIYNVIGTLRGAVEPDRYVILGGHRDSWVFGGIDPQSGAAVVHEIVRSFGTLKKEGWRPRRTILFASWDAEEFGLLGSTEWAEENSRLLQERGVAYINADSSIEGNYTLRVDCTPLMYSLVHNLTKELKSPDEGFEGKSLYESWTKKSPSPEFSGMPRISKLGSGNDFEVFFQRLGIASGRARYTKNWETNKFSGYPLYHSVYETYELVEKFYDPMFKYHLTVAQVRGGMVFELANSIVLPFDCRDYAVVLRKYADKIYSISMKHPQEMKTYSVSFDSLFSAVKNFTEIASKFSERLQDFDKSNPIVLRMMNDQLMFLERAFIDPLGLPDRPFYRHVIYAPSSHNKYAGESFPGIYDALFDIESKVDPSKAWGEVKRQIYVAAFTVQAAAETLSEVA

SMILES: O=C(O)CC[C@H](NC(=O)N[C@@H](CCCCNC(=O)[C@H](Cc1ccc2ccccc2c1)NC(=O)[C@H]1CC[C@H](CNC(=O)CN2CCN(CC(=O)O)CCN(CC(=O)O)CCN(CC(=O)O)CC2)CC1)C(=O)O)C(=O)O [PSMA-617, reference compound]
IC50 (PSMA): 3.8 ± 1.7 nM
Internalization (LNCaP cells [1]): 160.1 ± 1.5%
HSA (albumin binding) (HSA; [4]): 74.7%

logP [2]: -4.25 ± 0.14
HSA (albumin binding) (HSA; human, 0.5 mg/mL): 64.4%
adrenal gland (LNCaP-tumor xenograft; 1 h): 0.78 ± 0.07 % ID/g
blood (LNCaP-tumor xenograft; 1 h): 0.50 ± 0.03 % ID/g
bone (LNCaP-tumor xenograft; 1 h): 0.37 ± 0.13 % ID/g
brain (LNCaP-tumor xenograft; 1 h): 0.02 ± 0.01 % ID/g
heart (LNCaP-tumor xenograft; 1 h): 0.49 ± 0.06 % ID/g
intestine (LNCaP-tumor xenograft; 1 h): 0.21 ± 0.03 % ID/g
liver (LNCaP-tumor xenograft; 1 h): 0.32 ± 0.02 % ID/g
lung (LNCaP-tumor xenograft; 1 h): 0.62 ± 0.12 % ID/g
muscle (LNCaP-tumor xenograft; 1 h): 0.19 ± 0.07 % ID/g
pancreas (LNCaP-tumor xenograft; 1 h): 0.15 ± 0.04 % ID/g
spleen (LNCaP-tumor xenograft; 1 h): 1.93 ± 0.04 % ID/g
stomach (LNCaP-tumor xenograft; 1 h): 0.28 ± 0.04 % ID/g
tumor/blood (LNCaP-tumor xenograft; 1 h): 20.0
tumor/kidney (LNCaP-tumor xenograft; 1 h): 0.09
tumor/muscle (LNCaP-tumor xenograft; 1 h): 52.6
adrenal g. (LNCaP-tumor xenograft; 24 h): 0.09 ± 0.09 % ID/g
blood (LNCaP-tumor xenograft; 24 h): 0.003 ± 0.001 % ID/g
bone (LNCaP-tumor xenograft; 24 h): 0.02 ± 0.01 % ID/g
brain (LNCaP-tumor xenograft; 24 h): 0.01 ± 0.001 % ID/g
heart (LNCaP-tumor xenograft; 24 h): 0.03 ± 0.007 % ID/g
intestine (LNCaP-tumor xenograft; 24 h): 0.11 ± 0.07 % ID/g
kidney (LNCaP-tumor xenograft; 24 h): 20.92 ± 2.51 % ID/g
liver (LNCaP-tumor xenograft; 24 h): 0.14 ± 0.02 % ID/g
lung (LNCaP-tumor xenograft; 24 h): 0.03 ± 0.007 % ID/g
muscle (LNCaP-tumor xenograft; 24 h): 0.02 ± 0.006 % ID/g
pancreas (LNCaP-tumor xenograft; 24 h): 0.02 ± 0.007 % ID/g
spleen (LNCaP-tumor xenograft; 24 h): 0.09 ± 0.02 % ID/g
stomach (LNCaP-tumor xenograft; 24 h): 0.07 ± 0.03 % ID/g
t/blood (LNCaP-tumor xenograft; 24 h): 1910.0
t/kidney (LNCaP-tumor xenograft; 24 h): 0.3
t/liver (LNCaP-tumor xenograft; 24 h): 40.9
t/muscle (LNCaP-tumor xenograft; 24 h): 286.5
SMILES: O=C(O)CC[C@H](NC(=O)N[C@@H](CCC(=O)N[C@H](CCCNC(=O)C[C@@H](NC(=O)c1cc(C(=O)O)cc(C(=O)O)c1)C(=O)NCCCC[C@@H](NC(=O)[C@@H](Cc1ccc2ccccc2c1)NC(=O)[C@@H](Cc1ccc(O)cc1)NC(=O)[C@H](CNC(=O)c1cc(C(=O)O)cc(C(=O)O)c1)NC(=O)CCC(C(=O)O)N1CCN(CC(=O)O)CCN(CC(=O)O)CCN(CC(=O)O)CC1)C(=O)O)C(=O)O)C(=O)O)C(=O)O (stereo partly drawn) [PSMA-66, DOTAGA-Dap(TMA)y-2-nal-k(d[N^5-orn-C^4-EuE]-TMA)]
Internalization (LNCaP cells [1]; listed as [^177Lu]PSMA-66): 297.8±2.0% and 297.8%
Internalization (LNCaP cells [1]; listed as [^nat/177Lu]PSMA-66): 297.8 ± 2.0%
in vitro tumor cell retention (LNCaP cells [3]; 60 min incubation, ^177Lu-labeled): 90.1±3.5%
intracellular activity in the tumor cells (LNCaP cells [3]; after 1 h, ^177Lu-labeled): highest intracellular activity in the tumor cells after 1 h
intracellular clearance (LNCaP cells [3]; re-internalization blocked with 100 μM 2-PMPA-solution): lower than for all other investigated compounds

SMILES: O=C(O)CC[C@H](NC(=O)N[C@@H](CCCCNC(=O)CCCCC[C@H](NC(=O)c1ccc([N+](=O)[O-])cc1[N+](=O)[O-])C(=O)NCCCC[C@@H](NC(=O)[C@@H](Cc1ccccc1)NC(=O)[C@@H](Cc1ccc(O)c(I)c1)NC(=O)CCC(C(=O)O)N1CCN(CC(=O)O)CCN(CC(=O)O)CCN(CC(=O)O)CC1)C(=O)O)C(=O)O)C(=O)O (stereo partly drawn) [PSMA-36, DOTAGA-y(3-I)fk(L-Asu[KuE]-2,4-DNBA)]
Internalization (LNCaP cells [1]): 189.8 ± 37.5%
HSA (albumin binding) (HSA; [4]): 82.5%
tumor uptake (PET) (LNCaP-tumor): 3.5 % ID/mL

— patent US11497819B2, “PSMA ligands for imaging and endoradiotherapy” (priority 2017, dated 2022)
